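Grown in 96-well plates, cells were treated for 48 hours with each compound at five concentrations. Insufficient inhibition: endpoint recorded as highest concentration tested. TGI: total growth inhibition.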 Bounds are passed on as bounds.

The subject of the first assay is NCI-H522 lung. Kind of assay: DTP human tumour cell line panel, 48 h.
The TGI is the concentration giving total growth inhibition. `CC(=O)OCOC(=O)CN(CC(=O)OCOC(C)=O)Cc1cc2c(cc1OC(C)=O)Oc1cc(OC(C)=O)c(CN(CC(=O)OCOC(C)=O)CC(=O)OCOC(C)=O)cc1C21OC(=O)c2ccccc21` showed a TGI of 1.17 µM.
Still for that read-out and setting: next, `NC(=O)c1cc2cc(Cl)cc(Cl)c2oc1=Nc1ccc(F)cc1`: 38.1 µM.
On to `COc1ccc2nc(-n3c(/C=C/c4ccccc4O)nc4ccccc4c3=O)sc2c1`, for which the TGI is over 100 µM.
Still for that read-out and setting: with `O=CC(=C(I)I)c1ccccc1` the figure was 4.06 µM.
Compound `O=C1C=C2C(=NC34CCCCC3C(c3ccccc3)C3=C(c5ccccc5CC3)N24)c2ccccc21` (centres undefined) showed a TGI of over 10 µM.
Same read-out and setting: next, `O=[N+]([O-])C(C(Cl)=C(Cl)Cl)=C(N(Cc1ccccc1)Cc1ccccc1)N(Cc1ccccc1)Cc1ccccc1`: over 100 µM.
Take `CCCC1(NC(=O)C(F)(F)F)CC(OC)OC2COC(c3ccccc3)OC21` (centres undefined): the TGI was over 100 µM.
Consider `CCC1NC(=O)C1NC(=O)OC` (centres undefined), for which the TGI was over 100 µM.
The compound `O=c1c2nn3c(=O)n(-c4ccccc4)c(=O)c3nn2c(=O)n1-c1ccccc1` returned a TGI of over 100 µM.
On the same count and under the same terms, with `COC(=O)C1=CC2CCCC1(O)C(C(C)=O)C2` (centres undefined) the figure was 31.7 µM; with `CC(=O)CCCCC(=O)Nc1ccc(CC(NC(=O)OC(C)(C)C)C(=O)NCC(=O)OCc2ccccc2)cc1` (centres undefined), 57.9 µM.

A further assay relates to HCT-15 colon. As to the kind of experiment: DTP human tumour cell line panel, 48 h.
`CC(=O)OCOC(=O)CN(CC(=O)OCOC(C)=O)Cc1cc2c(cc1OC(C)=O)Oc1cc(OC(C)=O)c(CN(CC(=O)OCOC(C)=O)CC(=O)OCOC(C)=O)cc1C21OC(=O)c2ccccc21` gave a TGI of 7.05 µM.
On the same count and under the same terms, with `NC(=O)c1cc2cc(Cl)cc(Cl)c2oc1=Nc1ccc(F)cc1` the figure was 42.3 µM; with `COc1ccc2nc(-n3c(/C=C/c4ccccc4O)nc4ccccc4c3=O)sc2c1`, over 100 µM.
The compound `O=CC(=C(I)I)c1ccccc1` displayed a TGI of 5.01 µM.
Same read-out and setting: next, `O=C1C=C2C(=NC34CCCCC3C(c3ccccc3)C3=C(c5ccccc5CC3)N24)c2ccccc21` (centres undefined): over 10 µM; `O=[N+]([O-])C(C(Cl)=C(Cl)Cl)=C(N(Cc1ccccc1)Cc1ccccc1)N(Cc1ccccc1)Cc1ccccc1`: over 100 µM.
The same measure, in the same setting: next, `CCCC1(NC(=O)C(F)(F)F)CC(OC)OC2COC(c3ccccc3)OC21` (centres undefined): over 100 µM.
As to `CCC1NC(=O)C1NC(=O)OC` (centres undefined), the TGI is over 100 µM.
Still for that read-out and setting: next, `O=c1c2nn3c(=O)n(-c4ccccc4)c(=O)c3nn2c(=O)n1-c1ccccc1`: over 100 µM.
In turn, `COC(=O)C1=CC2CCCC1(O)C(C(C)=O)C2` (centres undefined) had a TGI of over 100 µM.
The same measure, in the same setting: next, `CC(=O)CCCCC(=O)Nc1ccc(CC(NC(=O)OC(C)(C)C)C(=O)NCC(=O)OCc2ccccc2)cc1` (centres undefined): over 100 µM.

Another assay has as its system HOP-92 NSCLC. As to the kind of experiment: DTP human tumour cell line panel, 48 h.
As to `CC(=O)OCOC(=O)CN(CC(=O)OCOC(C)=O)Cc1cc2c(cc1OC(C)=O)Oc1cc(OC(C)=O)c(CN(CC(=O)OCOC(C)=O)CC(=O)OCOC(C)=O)cc1C21OC(=O)c2ccccc21`, the TGI was 3.06 µM.
Still for that read-out and setting: with `NC(=O)c1cc2cc(Cl)cc(Cl)c2oc1=Nc1ccc(F)cc1` the figure was 80.4 µM.
The same measure, in the same setting: next, `COc1ccc2nc(-n3c(/C=C/c4ccccc4O)nc4ccccc4c3=O)sc2c1`: over 100 µM; `O=CC(=C(I)I)c1ccccc1`: 6.57 µM.
Same read-out and setting: with `O=C1C=C2C(=NC34CCCCC3C(c3ccccc3)C3=C(c5ccccc5CC3)N24)c2ccccc21` (centres undefined) the figure was over 10 µM; with `O=[N+]([O-])C(C(Cl)=C(Cl)Cl)=C(N(Cc1ccccc1)Cc1ccccc1)N(Cc1ccccc1)Cc1ccccc1`, 57.1 µM; with `CCCC1(NC(=O)C(F)(F)F)CC(OC)OC2COC(c3ccccc3)OC21` (centres undefined), over 100 µM.
In turn, `CCC1NC(=O)C1NC(=O)OC` (centres undefined) showed a TGI of over 100 µM.
On the same count and under the same terms, with `O=c1c2nn3c(=O)n(-c4ccccc4)c(=O)c3nn2c(=O)n1-c1ccccc1` the figure was over 100 µM; with `COC(=O)C1=CC2CCCC1(O)C(C(C)=O)C2` (centres undefined), over 100 µM.
As to `CC(=O)CCCCC(=O)Nc1ccc(CC(NC(=O)OC(C)(C)C)C(=O)NCC(=O)OCc2ccccc2)cc1` (centres undefined), the TGI was 68 µM.

In a further assay the test system is U251 CNS. As to the kind of experiment: DTP human tumour cell line panel, 48 h.
For the compound `CC(=O)OCOC(=O)CN(CC(=O)OCOC(C)=O)Cc1cc2c(cc1OC(C)=O)Oc1cc(OC(C)=O)c(CN(CC(=O)OCOC(C)=O)CC(=O)OCOC(C)=O)cc1C21OC(=O)c2ccccc21`, the TGI came out at 8.5 µM.
`NC(=O)c1cc2cc(Cl)cc(Cl)c2oc1=Nc1ccc(F)cc1`: the TGI came out at 41.2 µM.
The same measure, in the same setting: next, `COc1ccc2nc(-n3c(/C=C/c4ccccc4O)nc4ccccc4c3=O)sc2c1`: over 100 µM; `O=CC(=C(I)I)c1ccccc1`: 14.5 µM; `O=C1C=C2C(=NC34CCCCC3C(c3ccccc3)C3=C(c5ccccc5CC3)N24)c2ccccc21` (centres undefined): over 10 µM.
The same measure, in the same setting: next, `O=[N+]([O-])C(C(Cl)=C(Cl)Cl)=C(N(Cc1ccccc1)Cc1ccccc1)N(Cc1ccccc1)Cc1ccccc1`: over 100 µM; `CCCC1(NC(=O)C(F)(F)F)CC(OC)OC2COC(c3ccccc3)OC21` (centres undefined): over 100 µM.
Same read-out and setting: next, `CCC1NC(=O)C1NC(=O)OC` (centres undefined): over 100 µM.
Turning to `O=c1c2nn3c(=O)n(-c4ccccc4)c(=O)c3nn2c(=O)n1-c1ccccc1`, the TGI was over 100 µM.
The same measure, in the same setting: next, `COC(=O)C1=CC2CCCC1(O)C(C(C)=O)C2` (centres undefined): over 100 µM.
On to `CC(=O)CCCCC(=O)Nc1ccc(CC(NC(=O)OC(C)(C)C)C(=O)NCC(=O)OCc2ccccc2)cc1` (centres undefined), for which the TGI came out at 32.7 µM.

The next assay relates to NCI-H23 lung. Kind of assay: DTP human tumour cell line panel, 48 h.
`CC(=O)OCOC(=O)CN(CC(=O)OCOC(C)=O)Cc1cc2c(cc1OC(C)=O)Oc1cc(OC(C)=O)c(CN(CC(=O)OCOC(C)=O)CC(=O)OCOC(C)=O)cc1C21OC(=O)c2ccccc21` came in with a concentration for total growth inhibition (TGI) of 2.51 µM.
Same read-out and setting: with `NC(=O)c1cc2cc(Cl)cc(Cl)c2oc1=Nc1ccc(F)cc1` the figure was 27.8 µM.
On the same count and under the same terms, with `COc1ccc2nc(-n3c(/C=C/c4ccccc4O)nc4ccccc4c3=O)sc2c1` the figure was over 100 µM.
As to `O=CC(=C(I)I)c1ccccc1`, the TGI amounted to 4.97 µM.
As for `O=C1C=C2C(=NC34CCCCC3C(c3ccccc3)C3=C(c5ccccc5CC3)N24)c2ccccc21` (centres undefined), the TGI was over 10 µM.
The same measure, in the same setting: with `O=[N+]([O-])C(C(Cl)=C(Cl)Cl)=C(N(Cc1ccccc1)Cc1ccccc1)N(Cc1ccccc1)Cc1ccccc1` the figure was over 100 µM.
Still for that read-out and setting: with `CCCC1(NC(=O)C(F)(F)F)CC(OC)OC2COC(c3ccccc3)OC21` (centres undefined) the figure was over 100 µM.
Still for that read-out and setting: with `CCC1NC(=O)C1NC(=O)OC` (centres undefined) the figure was over 100 µM; with `O=c1c2nn3c(=O)n(-c4ccccc4)c(=O)c3nn2c(=O)n1-c1ccccc1`, over 100 µM.
As to `COC(=O)C1=CC2CCCC1(O)C(C(C)=O)C2` (centres undefined), the TGI was over 100 µM.

These data come from PubChem BioAssay (NCI).
